Laboratory results reported in patent US7981875B2, “2″ oxo-voruscharin and derivatives thereof” (priority 2002, dated 2011).

Experiments:
A549 (lung cancer) = assay: Orthotopic lung cancer model; assay type: in vivo, mice; details: for T/C index: A549 orthotopic, three times a week
Protocol: (§1) Three types of results were obtained with in vivo anti-tumor pharmacology: 1) the cumulative toxicity of chemotherapeutic administrations through recording the weights of the tumor-bearing mice during treatment, 2) the actual anti-tumor effect exerted at tumor growth level. If the tumor models are grafted subcutaneously (s.c.), tumor size is measured three times a week by means of a caliper and expressed as an area (mm^2) by multiplying together the two largest perpendicular diameters, and 3) the gain in survival for the animals treated, which is evaluated by means of the T/C index. This index is the ratio between the median survival time of the group of treated animals (T) and that of the control group. The drug is considered to be active if the T/C value is above 130% (P<0.05), and toxic for a value lower than 70%.
(§2) The antitumoral activity of compound B was evaluated in different xenografted models: sub-cutanous model: MCF-7-TD5 (breast cancer) and C32 (melanoma cancer) and orthotopic model: A549 (lung cancer).
Lung cancer is the leading cause of cancer deaths worldwide. Most patients die of progressive metastatic disease despite aggressive local and systemic therapies. The pathogenesis of lung cancer remains highly elusive due to its aggressive biologic nature and considerable heterogeneity, as compared to other cancers. Orthotopic lung cancer models are described in the literature using endobronchial, intrathoracic or intravenous injection of tumor cell suspensions and by surgical implantation of fresh tumor tissue. The tumor cells are directly injected into the lung of nude mice. The advantages of orthotopic models include improved tumor take and enhanced invasive and metastatic properties.
Compound B was assayed at DMT/2 (40 mg/kg), DMT/4 (20 mg/kg) and DMT/8 (10 mg/kg) three times a week. […] These values are statistically significant.
FIG. 21 represents the death rate of nine mice in each of the control and test groups during the experiment. Kaplan-Meier statistical analysis was used. The statistics value underlines the general fit of the test control in comparison with the general fit of the control group. […] The level significance was p<0.05.

C32 (melanoma cancer) = assay: Sub-cutaneous melanoma cancer model; assay type: in vivo, mice; details: for T/C index: three times a week
Protocol: as §1, §2
Experimental melanomas were set up in mice by painting their skins with a carcinogen. These experimental melanomas display certain morphological characteristics close to those of human melanomas but are less aggressive biologically. Compound B was assayed at DMT/4 (20 mg/kg), DMT/8 (10 mg/kg) and DMT/16 (5 mg/kg) three times a week. […] Indeed the T/C index values measured were respectively 95%, 107% and 81%.

[1] = system: MCF-7-TD5 (breast cancer); assay: Sub-cutaneous xenograft breast cancer model; assay type: in vivo, mice
Protocol: as §1, §2
The MCF-7-TD5 model described herein is a […] form of MCF-7 transfected with v-Ha-ras oncogene and with a neomycin-resistance gene. Compound B was assayed at MTD/8 (10 mg/kg) and MTD/16 (5 mg/kg) five times a week.
After s.c. injection of MCF-7-TD5 into untreated female nu/nu mice, the MCF-7 TD5 produced tumors after latency periods of 7 to 18 weeks. […] No oestradiol was used during the experiments described in this example.

[2] = system: HCT-15 human cancer cells; assay: Cell cycle kinetics by flow cytometry (propidium iodide); assay type: cell-based; parameters: key to Effect on cell cycle kinetics, G0/G1 / Effect on cell cycle kinetics, S / Effect on cell cycle kinetics, G2/M: n.s. means no significant; ** means highly significant; *** very highly significant
Protocol: (§3) Cell lines were seeded in flasks (25 cm^2 area) containing 7 ml of culture medium. After 48 hours incubation at 37° C. the cell culture medium was replaced by a fresh medium in which the substance to be tested had been dissolved at the different concentrations required. Uscharin and 2″ oxo-voruscharin were tested at concentrations, which kill 50% and 30% of the cell population, represented by the IC50 and IC30 values, respectively. After 24 or 72 hours of treatment the cells were harvested in suspension, washed in Phosphate Buffer Saline (PBS) at 4° C. and permeabilized with 70% ethanol (at 4° C.) overnight at −20° C. The cells were then washed with PBS and incubated with propidium iodide solution (80 μg/ml) for 30 minutes at 37° C. and afterward at 4° C. overnight. Ribonuclease A (3% V/V) was added to the PI solution to break doubled-stranded RNA. The portrait of the cell cycle was established for each sample. Software incorporated into the flow cytometer was used to define precisely the percentage of cells in the different cell cycle phases. Each cell cycle phase was reported in terms of peak surface and calculated as a percentage. The surface of the entire cell cycle was 100%. Each experiment was carried out 3 times. The mean percentage of each different phase and the standard error of the related mean were calculated. Each cell cycle phase of a given condition was compared with the same cell cycle phase of control. The non-treated cells constituted control.
(§4) Uscharin and 2″ oxo-voruscharin are highly toxic to human tumor cell lines. The concentrations used in the flow cytometry experiments were chosen in accordance with the MTT results (example 2). Three human cancer cell lines, Hs683, J82, and HCT-15 were tested and doses that killed 30 and 50 percent of the cells were applied to investigate whether uscharin and 2″ oxo-voruscharin promoted an accumulation in one of the cell cycle phases when the cell cultures were treated for 24 or 72 hours with increasing concentrations of the compounds. The IC50 and IC30 values for uscharin and 2″ oxo-voruscharin corresponding to the three tested cell lines are represented in Table E.

Hs683 human cancer cells = assay: as above; assay type: cell-based; parameters: key to Effect on cell cycle kinetics, G0/G1 / Effect on cell cycle kinetics, S / Effect on cell cycle kinetics, G2/M: n.s. means no significant; ** means highly significant; *** very highly significant
Protocol: as §3, §4

J82 human cancer cells = assay: as above; assay type: cell-based; parameters: key to Effect on cell cycle kinetics, G0/G1 / Effect on cell cycle kinetics, S / Effect on cell cycle kinetics, G2/M: n.s. means no significant; ** means highly significant; *** very highly significant
Protocol: as §3, §4

CC1CC2(NC(=O)CS2)C2(O)OC3CC4(CO)C(CCC5C4CCC4(C)C(C6=CC(=O)OC6)CCC54O)CC3OC2O1 (stereo not shown) [Compound B]
T/C index (A549 (lung cancer); 3×40 mg/kg): 124% | T/C index (A549 (lung cancer); 7×20 mg/kg): 152% | T/C index (A549 (lung cancer); 10×10 mg/kg): 186% | weight of A549-tumor bearing mice (toxic side effects) (A549 (lung cancer); constant administrations, 40, 20 and 10 mg/kg): did not lose any significant weight | weight of A549-tumor bearing mice (A549 (lung cancer); first week of administration at 40 mg/kg): significant loss of weight | T/C index (C32 (melanoma cancer); C32, 21×5 mg/kg): 81% | T/C index (C32 (melanoma cancer); C32, 25×20 mg/kg): 95% | T/C index (C32 (melanoma cancer); C32, 28×10 mg/kg): 107% | tumor area (C32 (melanoma cancer); C32-tumor bearing mice, most important effect at 10 mg/kg): decreased the tumor area | weight of C32-tumor bearing mice (toxic side effects) (C32 (melanoma cancer); constant administration, 20, 10 and 5 mg/kg): did not loose any significant weight | survival periods of MCF-7-TD5 tumor bearing mice ([1]; 60 administrations of 10 mg/kg and 5 mg/kg): not sufficient to significantly increase the survival periods | MCF-7-TD5 tumor growth ([1]; 60 administrations of 10 mg/kg and 5 mg/kg, five times a week): significantly decreased MCF-7-TD5 tumor growth | weight of MCF-7-TD5 tumor bearing mice (toxic side effects) ([1]; constant administrations, 10 mg/kg and 5 mg/kg): did not lose any significant weight

CC1CC2(NC(=O)CS2)C2(O)OC3CC4(C=O)C(CCC5C4CCC4(C)C(C6=CC(=O)OC6)CCC54O)CC3OC2O1 (stereo not shown) [2″oxo-voruscharin, 2″ oxo-voruscharin]
Effect on cell cycle kinetics, G0/G1 ([2]; HCT-15, 24 h): n.s. | Effect on cell cycle kinetics, G2/M ([2]; HCT-15, 24 h): n.s. | Effect on cell cycle kinetics, S ([2]; HCT-15, 24 h): n.s. | Effect on cell cycle kinetics, G0/G1 ([2]; HCT-15, 72 h): n.s. | Effect on cell cycle kinetics, G2/M ([2]; HCT-15, 72 h): n.s. | Effect on cell cycle kinetics, S ([2]; HCT-15, 72 h): *** | cell cycle, S-phase ([2]; HCT-15, 72 hours, highest concentration tested (4.3×10^−8 M uscharin, 1.2×10^−8 M 2″oxo-voruscharin)): accumulation in S-phase | cell cycle, G2/M phase (Hs683 human cancer cells; Hs683, 8.3×10^−9 M after 24 hours and both concentrations for 72 hours, significant): accumulation in G2/M phase | Effect on cell cycle kinetics, G0/G1 (Hs683 human cancer cells; Hs683, 24 h): n.s. | Effect on cell cycle kinetics, G2/M (Hs683 human cancer cells; Hs683, 24 h): *** | Effect on cell cycle kinetics, S (Hs683 human cancer cells; Hs683, 24 h): n.s. | Effect on cell cycle kinetics, G0/G1 (Hs683 human cancer cells; Hs683, 72 h): n.s. | Effect on cell cycle kinetics, G2/M (Hs683 human cancer cells; Hs683, 72 h): ** | Effect on cell cycle kinetics, S (Hs683 human cancer cells; Hs683, 72 h): n.s. | Effect on cell cycle kinetics, G0/G1 (J82 human cancer cells; J82, 24 h): n.s. | Effect on cell cycle kinetics, G2/M (J82 human cancer cells; J82, 24 h): n.s. | Effect on cell cycle kinetics, S (J82 human cancer cells; J82, 24 h): n.s. | Effect on cell cycle kinetics, G0/G1 (J82 human cancer cells; J82, 72 h): n.s. | Effect on cell cycle kinetics, G2/M (J82 human cancer cells; J82, 72 h): n.s. | Effect on cell cycle kinetics, S (J82 human cancer cells; J82, 72 h): ** | cell cycle, S-population (J82 human cancer cells; J82, only after 72 hours of treatment at both concentrations tested): increase of S-population
